Drawing on patent US20230133087A1, “ACTIVE COMPOUND COMBINATIONS AND FUNGICIDE COMPOSITIONS COMPRISING THOSE” (priority 2020, published 2023), this text covers efficacy for 18 compounds.

“And” between values parts separate entries of the source, which are not always exact repeats. Equal values may be shown once.

Assay type in all cases: cell-based
One experiment deals with Alternaria alternata. The experiment in a line: In vitro-test with fungal microorganisms (microtiter plate, photometric growth inhibition): Alternaria alternata. The protocol:
(§1) The degree of efficacy, expressed in % is denoted. 0% means an efficacy which corresponds to that of the control while an efficacy of 100% means that no disease is observed.
(§2) Wells of 96-well microtiter plates are filled with 30 μl of a preparation of test compound or compound combination in methanol+emulsifier alkylaryl-polyglycol-ether. Thereafter, the solvent is evaporated in a hood. At the next step, into each well 200 μl of liquid growth medium is given, that has been amended with an appropriate concentration of spores or mycelium suspension of the test fungus.
(§3) With the aid of a photometer the extinction in all wells is measured at the wavelength of 600 nm.
(§4) The microtiter plates are incubated for 3 to 7 days at 20° C. and 85% relative humidity. After the incubation inhibition of growth is determined photometrically. Efficacy is calculated in relation to the untreated control, 0% efficacy means fungal growth as high as in untreated control while 100% efficacy means no fungal growth is measured.

The next experiment deals with Botrytis cinerea. In words: In vitro-test with fungal microorganisms: Botrytis cinerea. The protocol:
as §1, §2, §3, §4

Another experiment has as its system Cercospora beticola. In words: In vitro-test with fungal microorganisms: Cercospora beticola. As for the experimental part: as §1, §2, §3, §4
A further experiment relates to Colletotrichum coccodes. In words: In vitro-test with fungal microorganisms: Colletotrichum coccodes. As for the experimental part:
as §1, §2, §3, §4

Another experiment deals with Cordana musae. In words: In vitro-test with fungal microorganisms: Cordana musae. The protocol: as §1, §2, §3, §4
For the next experiment, the system named is Diaporthe citri. In words: In vitro-test with fungal microorganisms: Diaporthe citri. As for the experimental part:
as §1, §2, §3, §4

The next experiment concerns Fusarium culmorum. The experiment in a line: In vitro-test with fungal microorganisms: Fusarium culmorum. As for the experimental part: as §1, §2, §3, §4
Another experiment deals with Parastasonospora nodorum. In words: In vitro-test with fungal microorganisms: Parastasonospora nodorum. The protocol: as §1, §2, §3, §4

On to `CO/N=C(/C1=NOCCO1)c1ccccc1Oc1ncnc(Oc2ccccc2Cl)c1F` [(3.012) fluoxastrobin, fluoxastrobin], for which the efficacy in the experiment on Alternaria alternata (2 ppm) was 100%; in the experiment with Botrytis cinerea (0.08 ppm), 15% and 12%; with Botrytis cinerea (2 ppm) it was 59% and 52%; in the experiment on Botrytis cinerea (10 ppm), 86% and 83%; in the experiment on Cercospora beticola (2 ppm) it was 94%; in the experiment on Colletotrichum coccodes (0.008 ppm), 0%. For the same compound, the efficacy in the experiment with Colletotrichum coccodes (0.08 ppm) was 30% and 15%; in the experiment on Colletotrichum coccodes (0.4 ppm), 49% and 50% and 51%; in the experiment with Colletotrichum coccodes (2 ppm), 88% and 87% and 82% and 83%; in the experiment with Colletotrichum coccodes (10 ppm) it was 94% and 95% and 96%; in the experiment with Cordana musae (2 ppm), 77%; in the experiment with Cordana musae (10 ppm) it was 87%.

For `CON(C(=O)c1cn(C)nc1C(F)F)C(C)Cc1c(Cl)cc(Cl)cc1Cl` (centres unmarked) [(2.019) pydiflumetofen, pydiflumetofen], the efficacy with Botrytis cinerea (0.04 ppm) was 71%; with Botrytis cinerea (0.2 ppm), 82%; with Botrytis cinerea (1 ppm), 92%; in the experiment on Colletotrichum coccodes (0.008 ppm), 8% and 9%; in the experiment on Colletotrichum coccodes (0.2 ppm) it was 19%.

With inpyrfluxam [(2.027) inpyrfluxam], the efficacy was 0% in the experiment with Alternaria alternata (0.008 ppm); 41% and 27% in the experiment with Alternaria alternata (0.04 ppm); 86% in the experiment with Alternaria alternata (1 ppm); 0% in the experiment on Botrytis cinerea (0.008 ppm); 37% with Botrytis cinerea (0.04 ppm); 0% in the experiment on Botrytis cinerea (0.08 ppm). Further, the efficacy with Colletotrichum coccodes (0.008 ppm) came out at 0%; in the experiment on Colletotrichum coccodes (0.08 ppm) it was 24%; in the experiment with Colletotrichum coccodes (0.2 ppm) it was 0%; in the experiment on Colletotrichum coccodes (0.4 ppm), 23%; in the experiment on Cordana musae (0.008 ppm), 16%; in the experiment with Cordana musae (0.04 ppm), 0%. The efficacy in the experiment on Cordana musae (0.2 ppm) turned out to be 6%.

`O=C(NCCc1ncc(C(F)(F)F)cc1Cl)c1ccccc1C(F)(F)F` [fluopyram]: the efficacy was determined as 0% with Diaporthe citri (Table F1, 0.16 ppm); 9% in the experiment on Fusarium culmorum (0.16 ppm); 18% with Fusarium culmorum (0.8 ppm); 14% in the experiment with Parastasonospora nodorum (Table H1, 0.16 ppm); 100% in the experiment with Parastasonospora nodorum (Table H1, 20 ppm).

Take `Cc1nn(C)c(F)c1C(=O)Nc1ccccc1C(C)CC(C)C` (centres unmarked) [(2.017) penflufen, penflufen]: the efficacy in the experiment on Alternaria alternata (0.2 ppm) came to 14%; in the experiment with Botrytis cinerea (1 ppm) it was 35%; in the experiment with Botrytis cinerea (5 ppm), 7%; in the experiment with Colletotrichum coccodes (0.04 ppm), 5%; in the experiment with Colletotrichum coccodes (0.2 ppm), 0%.

Take `C[C@@H]1CC(C)(C)c2cccc(NC(=O)c3cn(C)nc3C(F)F)c21` [inpyrfluxam]: the efficacy in the experiment with Cordana musae (0.008 ppm) is reported as 16%; with Cordana musae (0.04 ppm), 0%; with Cordana musae (0.2 ppm), 6%; with Parastasonospora nodorum (Table H3, 0.008 ppm), 20%.

For `Cc1nn(C)c(F)c1C(=O)Nc1ccccc1C(C)CC(C)C` (centres unmarked) [penflufen], the efficacy with Cordana musae (0.2 ppm) was 0%; with Cordana musae (1 ppm), 0%; in the experiment on Diaporthe citri (Table F2, 0.04 ppm), 0%; in the experiment with Diaporthe citri (Table F2, 0.2 ppm), 0%; in the experiment on Parastasonospora nodorum (Table H2, 5 ppm) it was 22%.

Take `CON(C(=O)c1cn(C)nc1C(F)F)C(C)Cc1c(Cl)cc(Cl)cc1Cl` (centres unmarked) [pydiflumetofen]: the efficacy in the experiment on Cordana musae (0.008 ppm) was 0%; in the experiment on Cordana musae (0.04 ppm), 9%; in the experiment on Diaporthe citri (Table F2, 0.04 ppm), 0%; in the experiment on Diaporthe citri (Table F2, 0.2 ppm) it was 22%; in the experiment with Diaporthe citri (Table F2, 1 ppm), 33%.

As for `O=C(NCCc1ncc(C(F)(F)F)cc1Cl)c1ccccc1C(F)(F)F` [(2.005) fluopyram, fluopyram], the efficacy was 72% with Alternaria alternata (0.16 ppm); 73% with Alternaria alternata (0.8 ppm); 95% in the experiment with Alternaria alternata (4 ppm); 0% with Botrytis cinerea (0.8 ppm); 10% and 0% with Colletotrichum coccodes (0.16 ppm); 0% in the experiment with Colletotrichum coccodes (0.8 ppm). For the same compound, the efficacy in the experiment with Cordana musae (0.16 ppm) was 0%; with Cordana musae (0.8 ppm) it was 6% and 0%.

On to `O=C(NC1CCC1c1ccc(Cl)cc1Cl)c1cccnc1C(F)(F)F` (stereo in doubt) [cyclobutrifluram], for which the efficacy in the experiment on Diaporthe citri (Table F1, 0.04 ppm) was 0%; in the experiment with Parastasonospora nodorum (Table H2, 0.04 ppm), 27%.

Regarding `CC(C)c1ccc(Cl)cc1CN(C(=O)c1c(C(F)F)nn(C)c1F)C1CC1` [isoflucypram], the efficacy with Fusarium culmorum (0.04 ppm) was found to be 0%; in the experiment with Fusarium culmorum (0.2 ppm) it was 11%.

Take `Cc1cccc(-n2nnn(C)c2=O)c1COc1ccn(-c2ccc(Cl)cc2)n1` [(3.030) metyltetraprole, metyltetraprole]: the efficacy was 92% and 99% in the experiment with Alternaria alternata (2 ppm); 99% with Alternaria alternata (10 ppm); 18% with Botrytis cinerea (0.08 ppm); 30% and 25% with Botrytis cinerea (0.4 ppm); 84% in the experiment with Botrytis cinerea (10 ppm); 36% in the experiment on Colletotrichum coccodes (0.008 ppm). For the same compound, the efficacy in the experiment on Colletotrichum coccodes (0.4 ppm) was 75% and 73% and 72%; in the experiment with Colletotrichum coccodes (2 ppm) it was 92% and 94% and 82%; with Colletotrichum coccodes (10 ppm) it was 100%; in the experiment on Cordana musae (0.08 ppm) it was 65%; in the experiment with Cordana musae (0.4 ppm), 77%; in the experiment on Cordana musae (10 ppm) it was 96%.

On to `Cc1cccc(-n2nnn(C)c2=O)c1COc1ccn(-c2ccc(Cl)cc2)n1` [metyltetraprole], for which the efficacy in the experiment with Cordana musae (0.08 ppm) amounted to 58%; in the experiment on Cordana musae (0.4 ppm), 73%; with Cordana musae (2 ppm), 82%; in the experiment with Diaporthe citri (Table F1, 0.4 ppm), 91%; in the experiment on Diaporthe citri (Table F1, 2 ppm), 99%; in the experiment with Diaporthe citri (Table F1, 10 ppm), 99%. For the same compound, the efficacy is 89% with Diaporthe citri (Table F2, 0.4 ppm); 99% in the experiment with Diaporthe citri (Table F2, 2 ppm); 80% and 76% in the experiment on Parastasonospora nodorum (Table H2, 0.08 ppm); 92% in the experiment with Parastasonospora nodorum (Table H2, 0.4 ppm); 100% in the experiment with Parastasonospora nodorum (Table H2, 2 ppm); 100% in the experiment on Parastasonospora nodorum (Table H2, 10 ppm).

For `CC(C)c1ccc(Cl)cc1CN(C(=O)c1c(C(F)F)nn(C)c1F)C1CC1` [(2.038) isoflucypram, isoflucypram], the efficacy with Alternaria alternata (0.008 ppm) is 51%; with Alternaria alternata (0.2 ppm) it was 69%; in the experiment with Cercospora beticola (0.008 ppm) it was 20%; in the experiment with Cercospora beticola (0.04 ppm), 30%; with Cercospora beticola (0.2 ppm) it was 0%; in the experiment on Cercospora beticola (1 ppm) it was 88%. Further, the efficacy was 23% in the experiment on Colletotrichum coccodes (0.008 ppm); 9% and 5% in the experiment with Colletotrichum coccodes (0.04 ppm); 14% in the experiment on Colletotrichum coccodes (0.2 ppm); 8% and 2% in the experiment with Cordana musae (0.008 ppm); 0% in the experiment with Cordana musae (0.04 ppm).

In the case of `O=C(NC1CCC1c1ccc(Cl)cc1Cl)c1cccnc1C(F)(F)F` (stereo in doubt) [(2.060) cyclobutrifluram, cyclobutrifluram], the efficacy in the experiment on Colletotrichum coccodes (0.04 ppm) was determined as 5%; in the experiment on Colletotrichum coccodes (0.2 ppm), 8%; with Cordana musae (0.04 ppm) it was 3%; with Cordana musae (0.2 ppm) it was 4%; in the experiment with Cordana musae (1 ppm), 6%.

As to `CON=C(C(=O)OC)c1ccccc1CON=C(C)c1cccc(C(F)(F)F)c1` [(3.020) trifloxystrobin, trifloxystrobin], the efficacy in the experiment with Alternaria alternata (0.008 ppm) came out at 39%; with Alternaria alternata (1 ppm) it was 100%; with Botrytis cinerea (0.008 ppm), 0%; with Botrytis cinerea (0.04 ppm) it was 9%; with Botrytis cinerea (0.2 ppm), 25%; in the experiment on Botrytis cinerea (1 ppm), 81%. Further, the efficacy in the experiment with Colletotrichum coccodes (0.04 ppm) is 58% and 62% and 61%; with Colletotrichum coccodes (0.2 ppm) it was 84% and 88% and 82%; in the experiment with Colletotrichum coccodes (1 ppm), 96% and 97% and 92%; in the experiment on Cordana musae (0.008 ppm) it was 29%; with Cordana musae (0.04 ppm) it was 82%; with Cordana musae (0.2 ppm) it was 83% and 82%. For the same compound, in the experiment on Cordana musae (1 ppm), the efficacy was 89% and 88% and 86% and 85%.

`CO/N=C(/C1=NOCCO1)c1ccccc1Oc1ncnc(Oc2ccccc2Cl)c1F` [fluoxastrobin]: the efficacy in the experiment on Cordana musae (0.4 ppm) turned out to be 64%; in the experiment with Cordana musae (2 ppm), 78%; with Cordana musae (10 ppm) it was 78%; with Diaporthe citri (Table F1, 0.4 ppm) it was 89%; with Diaporthe citri (Table F1, 2 ppm), 98%; in the experiment with Diaporthe citri (Table F2, 2 ppm) it was 66%. Moreover, the efficacy was 7% and 0% with Fusarium culmorum (0.08 ppm); 17% in the experiment with Fusarium culmorum (0.4 ppm); 56% with Fusarium culmorum (10 ppm); 77% in the experiment with Parastasonospora nodorum (Table H1, 0.4 ppm); 87% with Parastasonospora nodorum (Table H1, 2 ppm); 60% in the experiment on Parastasonospora nodorum (Table H2, 0.08 ppm). In addition, the efficacy in the experiment on Parastasonospora nodorum (Table H2, 0.4 ppm) amounted to 65%; in the experiment with Parastasonospora nodorum (Table H2, 2 ppm), 85%; in the experiment with Parastasonospora nodorum (Table H3, 0.08 ppm) it was 57%; with Parastasonospora nodorum (Table H3, 2 ppm), 85%; in the experiment on Parastasonospora nodorum (Table H3, 10 ppm) it was 82%.

Take `CON=C(C(=O)OC)c1ccccc1CON=C(C)c1cccc(C(F)(F)F)c1` [trifloxystrobin]: the efficacy is reported as 73% in the experiment with Cordana musae (0.2 ppm); 84% with Cordana musae (1 ppm); 14% with Fusarium culmorum (0.008 ppm); 18% in the experiment with Fusarium culmorum (0.04 ppm); 41% in the experiment with Fusarium culmorum (0.2 ppm); 68% in the experiment on Fusarium culmorum (1 ppm). The efficacy in the experiment with Parastasonospora nodorum (Table H1, 0.04 ppm) came to 65%; in the experiment with Parastasonospora nodorum (Table H1, 0.2 ppm) it was 85%; in the experiment with Parastasonospora nodorum (Table H2, 0.008 ppm), 44%; with Parastasonospora nodorum (Table H2, 0.04 ppm), 79%.
